In patent US7370953B2, “Inkjet recording ink” (FUJIFILM Corporation, priority 2003, dated 2008):

Key:
[1] = Oxidation potential of dye (vs SCE); assay type: physicochemical; conditions: comparative dyes; method not stated
Method: The value of oxidation potential (Eox) can be easily measured by those skilled in the art.
In some detail, for the measurement of oxidation potential, the test specimen is dissolved in a solvent such as dimethyl formamide and acetonitrile containing a supporting electrolyte such as sodium perchlorate and tetrapropylammonium perchlorate in a concentration of from […] to 1×10^−6 mol/l. The solution is then measured for oxidation potential with respect to SCE (saturated calomel electrode) by cyclic voltametry or DC polarography, etc. This value may deviate by a few tens of millivolts when affected by the difference in potential between liquids or the resistivity of sample solution, but the reproducibility of potential can be assured by putting a standard sample (e.g., hydroquinone) in the sample solution.
In order to unequivocally define oxidation potential, in the present invention, the value (vs SCE) measured in dimethyl formamide containing 0.1 mol dm^−3 of tetrapropylammonium perchlorate as a supporting electrolyte (dye concentration: 0.001 mol dm^−3) is defined as oxidation potential of dye.

[2] = Absorption spectrum of dye; assay type: physicochemical; conditions: comparative dyes; ratio as printed
Excerpt: To this end, the dye to be used in the invention preferably is a yellow dye having a λmax at a wavelength range of from 390 nm to 470 nm and a I(λmax+70 nm)/I(λmax) ratio of not greater than 0.2, more preferably not greater than 0.1 in which I(λmax) is the absorbance at λmax and I(λmax+70 nm) is the absorbance at λmax+70 nm. Ideally speaking, the lower limit of the ratio is 0. In actuality, however, the lower limit of the ratio is about 0.01.

Row | Compound | oxidation potential [1] | I(λmax)/I(λmax+70 nm) ratio [2]
1 | Direct Yellow 11 [Yellow dye (D)] | ≤ 1.0 V (vs SCE) | greater than 0.4
2 | Cc1nn(-c2ccc(S(=O)(=O)[O-])cc2)c(O)c1/N=N/c1cccc(S(=O)(=O)Nc2cc(C(=O)[O-])cc(C(=O)[O-])c2)c1.[K+].[K+].[K+] [Yellow dye (C)] | ≤ 1.0 V (vs SCE) | ≤ 0.4
